Laboratory results published in patent publication US9695462B2, “Method for evaluation of drug efficacy of a medicine having a therapeutic or preventive effect against a disease related to EL activity and a method for screening an inhibitor of EL activity” (SHIONOGI & CO., LTD., priority 2012, dated 2017).

Target: T1, mouse EL (Mus musculus, UniProt Q9WVG5)
T1 construct: made in house; host or cells: Freestyle 293F cells (pcDNA-DEST40 vector)
T1 sequence (Q9WVG5 21-500): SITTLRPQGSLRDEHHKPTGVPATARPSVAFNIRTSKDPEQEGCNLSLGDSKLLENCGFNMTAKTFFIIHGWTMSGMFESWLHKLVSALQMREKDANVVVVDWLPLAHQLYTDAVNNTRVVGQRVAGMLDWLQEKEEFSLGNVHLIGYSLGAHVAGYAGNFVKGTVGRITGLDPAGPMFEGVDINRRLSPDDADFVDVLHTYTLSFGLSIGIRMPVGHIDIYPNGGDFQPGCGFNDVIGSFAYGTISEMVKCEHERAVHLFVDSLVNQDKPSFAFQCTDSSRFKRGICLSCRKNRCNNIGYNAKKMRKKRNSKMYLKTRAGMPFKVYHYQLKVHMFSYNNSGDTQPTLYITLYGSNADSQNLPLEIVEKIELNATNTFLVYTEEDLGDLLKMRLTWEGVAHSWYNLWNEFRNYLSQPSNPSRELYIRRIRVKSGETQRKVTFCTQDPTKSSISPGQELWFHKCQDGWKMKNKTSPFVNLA
Assay: Inhibition of mouse EL activity using phosphatidylinositol-HDL as a substrate (NEFA production)
Format: biochemical
Conditions: 37° C. for 2 hr, FIG. 5
Method: Phosphatidylinositol (Avanti Polar Lipids Inc.) in chloroform was collected the necessary amount, which was completely evaporated the solvent to dryness under nitrogen. After addition of PBS, phosphatidylinositol-HDL induced phosphatidylinositol (2.5 mg/ml) into HDL (5 mg/ml) was prepared by mixing phosphatidylinositol vesicle prepared by sonication on ice with human HDL (Athens Research & Technology, Inc.) and incubating at 4° C. for 24 hr. The pcDNA-DEST40 (Invitrogen Corp.) cloned DNA encoding mouse EL was transfected into Freestyle 293F cells and the cells were cultured at 37° C. for 2 days in an atmosphere of 8% CO2. The cells were collected by centrifugation of the culture medium, suspended in Freestyle 293 Expression Medium (Invitrogen Corp.) containing 20 U/ml heparin and incubated at 37° C. for 45 min. After that, the supernatant obtained by removing the cells by centrifugation was used as mouse EL enzyme solution. […] After reaction at 37° C. for 2 hr, the amount of NEFA produced from substrate by EL was measured with NEFA C-test Wako (Wako Pure Chemical Industries, Ltd.) and the amount of NEFA (absorbance) was assumed an index of enzyme activity. The enzyme activity was calculated by subtracting the background value equivalent to the amount of endogenous NEFA without mouse EL enzyme solution from the value measured in enzyme reaction of EL (FIG. 4).

Question: How did the “inhibitory activity against mouse EL (inhibition rate)” value turn out when `CCCCCCCCCCC[C@@H](C[C@@H]1OC(=O)[C@H]1CCCCCC)OC(=O)[C@H](CC(C)C)NC=O` [orlistat] was run?
Answer: dose-dependent inhibition
